Test results published in BindingDB's records for doi:10.1021/jm00076a005 (Glaxo Group Research, 1993).

Target: T1, Gag-Pol polyprotein [588-1027]/[588-1147] (Human immunodeficiency virus 1, UniProt P04585)
T1 construct: 588-1027; 588-1147
Test: HIV-1 RT Assay
Excerpt: The IC50 of reverse transcriptase is the concentration that inhibits 50% of recombinant HIV-1 RT RNA-directed DNA polymerase activity in vitro.

Row | Compound | IC50 [nM] | IC50 (pH 8, 37 °C) [nM]
1 | Cc1nc(CCCCCCC(=O)c2ccccc2)n2nc(-n3cncc3C)ccc12 [7-[5-methyl-2-(5-methyl-1H-imidazol-1-yl)imidazo[1,5-a]pyridazin-7-yl]-1-phenylheptan-1-one] | 100 | 
2 | Cc1nc(CCCCCCC(=O)c2ccccc2)n2nc(-n3cncn3)ccc12 [7-[5-methyl-2-(1H-1,2,4-triazol-1-yl)imidazo[1,5-a]pyridazin-7-yl]-1-phenylheptan-1-one] | 100 | 
3 | Cc1nc(CCCCCO)n2nc(Cl)ccc12 [5-{2-chloro-5-methylimidazo[1,5-a]pyridazin-7-yl}pentan-1-ol] |  | 100000
